Values of other authors, collected in patent US20250074936A1, “A PROCESS FOR ISOLATION OF SAPONINS UTTROSIDE B AND UTTROSIDE A FROM SOLANUM NIGRUM LINN” (COUNCIL OF SCIENTIFIC AND INDUSTRIAL RESEARCH AN INDIAN …, priority 2022, published 2025).

Experiments:
HeLa cells = details: read-out: moderate cytotoxicity against HeLa cells, IC50
HCT-16 = HCT-16 cells; read-out: cytotoxicity towards HCT-16, IC50
PC-12 = PC-12 cells; read-out: cytotoxicity towards PC-12, IC50

CO[C@]1(CC[C@@H](C)COC2OC(CO)C(O)C(O)C2O)OC2C[C@H]3[C@@H]4CC[C@H]5C[C@@H](OC6OC(CO)C(OC7OC(CO)C(O)C(OC8OCC(O)C(O)C8O)C7OC7OC(CO)C(O)C(O)C7O)C(O)C6O)CC[C@]5(C)[C@H]4CC[C@]3(C)C2[C@@H]1C (stereo partly drawn) [uttroside A]
IC50 (HeLa cells): 15400 nM

C[C@H](CC[C@@]1(O)OC2C[C@H]3[C@@H]4CC[C@H]5C[C@@H](OC6OC(CO)C(OC7OC(CO)C(O)C(OC8OCC(O)C(O)C8O)C7OC7OC(CO)C(O)C(O)C7O)C(O)C6O)CC[C@]5(C)[C@H]4CC[C@]3(C)C2[C@@H]1C)COC1OC(CO)C(O)C(O)C1O (stereo partly drawn) [uttroside B]
IC50 (HCT-16): 2330 nM
IC50 (PC-12): 1200 nM
